Data published in patent US5120828A, “Synthetic polypeptide with laminin activity” (Regents of the University of Minnesota, priority 1989, dated 1992).

Molecular target: T1, peptide AC15 (Mus musculus, UniProt P02469)
T1 construct: residues 202-218 from the B1 chain of laminin; The single letter amino acid code for this polypeptide is RIQNLLKITNLRIKFVK; made in house; host or cells: chemical solid-phase (Merrifield) synthesis, no expression host
Experiment: Heparin/peptide interaction specificity: competition of 3H-heparin binding to coated peptide AC15 by glycosaminoglycans
Details: 3 μg per well of peptide AC15 coated; various amounts of non-radioactive glycosaminoglycan; 2 h, 37° C.; FIG. 9
Procedure: To check whether charge was the main factor in the interaction between heparin and peptide AC15 or whether the heparin structure was also critical to this interaction, heparin along with one other sulfated glucosaminoglycan, chondroitin sulfate were used in competition experiments. A standard amount of 3 μg per well of peptide AC15 was coated on 96-well plates as described above. Wells were treated for two hours with 2 mg/ml BSA in wash buffer. Then, a final volume of 50 μl was added to each well, containing a standard amount of ^3 H-heparin (5,000 cpm per well) and various amounts of non-radioactive heparin, and chondroitin sulfate. After incubating for two hours at 37° C., the wells were washed and radioactivity was counted as described above in Example 1.

Substance	competition for the binding of tritiated heparin to peptide AC15
heparin	able to compete for the binding of tritiated heparin to peptide AC15 at very low concentrations
chondroitin sulfate	cannot mimic this effect even at very high concentrations
